According to patent US9248145B2, “Two alkylresorcinol synthase genes from sorghum; cloning, expression, transformation and characterization” (The United States of America, as represented by The …, priority 2010, dated 2016):
Blank lines part the entries; values can stand above or below the compound they belong to.

Legend:
[1] = target: T1, recombinant ARS1 (Sorghum bicolor, UniProt C5Y4Z2); assay: Steady-state kinetics with [2-14C]-malonyl-CoA, TLC/phosphor imaging; format: biochemical; conditions: for Km: same conditions as kcat; for kcat: starter kinetics: 40 μM [2-14C]-malonyl-CoA, 1.43-10 μM starter, malonyl-CoA kinetics: 25 μM palmitoleoyl-CoA starter, pH 7.0, 30° C., 5 min
T1 sequence (C5Y4Z2 entry or part of it): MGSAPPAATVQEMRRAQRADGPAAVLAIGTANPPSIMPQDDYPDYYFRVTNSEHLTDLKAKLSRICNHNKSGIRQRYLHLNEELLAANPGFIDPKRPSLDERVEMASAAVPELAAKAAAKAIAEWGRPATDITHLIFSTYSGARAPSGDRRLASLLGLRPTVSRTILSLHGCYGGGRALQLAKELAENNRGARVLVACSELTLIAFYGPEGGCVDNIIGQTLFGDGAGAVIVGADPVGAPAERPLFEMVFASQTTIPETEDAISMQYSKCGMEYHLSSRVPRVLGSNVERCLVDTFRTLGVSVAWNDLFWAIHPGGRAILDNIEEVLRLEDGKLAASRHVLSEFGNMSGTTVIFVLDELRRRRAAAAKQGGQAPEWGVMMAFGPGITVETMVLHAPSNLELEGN
Experimental: (§1) Enzyme assays, performed in triplicate, for starter unit CoA kinetics contained 100 mM potassium phosphate buffer (pH 7.0), 40 μM [2-^14C]-malonyl-CoA (50-60 mCi/mmol, 1.85-2.22 GBq/mmol; American Radiolabeled Chemicals, Inc., St. Louis, Mo.), 1.43-10 μM starter unit (e.g., palmitoyl-CoA), and 0.75 μg protein in a 200 μL volume at 30° C. for 5 min. Enzyme assays for malonyl-CoA kinetics contained 100 mM potassium phosphate buffer (pH 7.0), 1.66-25 μM [2-^14C]-malonyl-CoA, 25 μM starter unit (palmitoleoyl-CoA), and 0.75 μg protein in a 200 μL volume at 30° C. for 5 min. Reactions were quenched by addition of 10 μL of 20% HCl. The products were extracted as described above, and were separated by thin layer chromatography (silica gel 60 F254; chloroform:ethyl acetate=70:30; 15 min). Product detection and formation was quantified through the use of the Cyclone storage phosphor system and OptiQuant 3.0 image analysis software (PerkinElmer, Wellesley, Mass.). Data were fit to the Michaelis-Menten equation using the Sigma Plot 9.01 enzyme kinetics module (Systat, Inc., San Jose, Calif.).

[2] = target: T2, recombinant ARS2 (Sorghum bicolor, UniProt C5YRS1); assay: as above; format: biochemical; conditions: for Km: same conditions as kcat; for kcat: starter kinetics: 40 μM [2-14C]-malonyl-CoA, 1.43-10 μM starter, malonyl-CoA kinetics: 25 μM palmitoleoyl-CoA starter, pH 7.0, 30° C., 5 min
T2 sequence (C5YRS1 entry or part of it): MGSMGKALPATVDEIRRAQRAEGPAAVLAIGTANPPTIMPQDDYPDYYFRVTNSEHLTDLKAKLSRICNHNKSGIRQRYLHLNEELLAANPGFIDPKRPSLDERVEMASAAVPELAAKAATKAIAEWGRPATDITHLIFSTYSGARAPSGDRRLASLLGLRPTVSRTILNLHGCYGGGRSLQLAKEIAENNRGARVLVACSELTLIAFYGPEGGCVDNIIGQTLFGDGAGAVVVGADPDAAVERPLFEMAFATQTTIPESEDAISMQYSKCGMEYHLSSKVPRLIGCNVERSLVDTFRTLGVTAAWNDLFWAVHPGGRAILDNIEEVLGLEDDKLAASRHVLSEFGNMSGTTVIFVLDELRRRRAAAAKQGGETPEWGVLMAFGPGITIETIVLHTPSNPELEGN
Experimental: as §1

[3] = target: T2, recombinant ARS2; assay: Polyketide synthase enzyme assay, 5-alkylresorcinol formation (GC-MS, m/z 268); format: biochemical; conditions: for activity as starter unit (in words): malonyl-CoA extender
Experimental: (§2) Reactions were quenched by addition of 10 μL of 20% HCl, and products were extracted by phase partitioning with 1 ml of ethyl acetate. The organic phase (upper layer) obtained by centrifugation at ˜14,000×g for 1 min was transferred to a fresh tube, dried under vacuum, and subsequently analyzed by GC-EI-MS as a trimethysilyl (TMS) derivative.
(§3) Reactions were quenched by addition of 10 μL of 20% HCl. The products were extracted as described above, and were separated by thin layer chromatography (silica gel 60 F254; chloroform:ethyl acetate=70:30; 15 min). Product detection and formation was quantified through the use of the Cyclone storage phosphor system and OptiQuant 3.0 image analysis software (PerkinElmer, Wellesley, Mass.).
(§4) Recombinant enzyme studies were next performed to examine substrate preferences for the 3 putative type III PKS enzymes maximally expressed in root hairs. […] Acyl-CoAs varying in length and degree of saturation were tested in enzymatic assays with all three recombinant enzymes, as well as the non-linear starter units benzoyl-CoA, isovaleryl-CoA, and isobutryl-CoA used by several other plant type III PKS enzymes (Austin and Noel, supra).

[4] = system: recombinant Os05g12180; assay: Polyketide synthase enzyme assay, alkylresorcinol synthase activity; format: biochemical, Oryza sativa
Experimental: (§5) Polyketide synthase enzyme assays, performed in triplicate, contained 100 mM potassium phosphate buffer (pH 7.0), 40 μM malonyl-CoA, 25 μM starter unit (e.g., palmitoyl-CoA), and 2 μg protein in a 200 μL volume at 30° C. for 15 min. […] Reactions were quenched by addition of 10 μL of 20% HCl, and products were extracted by phase partitioning with 1 ml of ethyl acetate. The organic phase (upper layer) obtained by centrifugation at ˜14,000×g for 1 min was transferred to a fresh tube, dried under vacuum, and subsequently analyzed by GC-EI-MS as a trimethysilyl (TMS) derivative. Product formation was quantified using selective ion monitoring at m/z 268, a fragment ion common to all alkylresorcinols, generated by benzylic cleavage of the alkyl side chain. The identification of the m/z 268 [(5-methyl-1,3 phenylene)bis(oxy)bis(TMS)]^+ base ion and the parent [M]^+ provide confirmation of the 5-alkylresorcinolic structure as well as the length and degree of saturation of the associated side chain (Occolowitz, 1964. Anal. Chem. 36:2177-2181; Suzuki et al. 1996, supra; Suzuki at al. 2003, supra).
as §1
(§6) To explore this possibility, the predicted open reading frames encoded by O. sativa (cv. Nipponbare) LOC_Os05g12180, LOC_Os10g08620, and LOC_Os10g07040, were also expressed in E. coli as N-terminal polyhistidine fusions, and tested for alkylresorcinol synthase activity with the same panel of fatty acyl-CoA substrates used for recombinant ARS1 and ARS2 enzymatic studies (FIG. 4).

[5] = system: recombinant Os10g07040; assay: as above; format: biochemical, Oryza sativa
Experimental: as §5, §1, §6

[6] = system: recombinant Os10g08620; assay: as above; format: biochemical, Oryza sativa
Experimental: as §5, §1, §6

[7] = target: T1, recombinant ARS1; assay: Polyketide synthase enzyme assay, 5-alkylresorcinol formation (GC-MS, m/z 268); format: biochemical; conditions: for activity as starter unit (in words): malonyl-CoA extender
Experimental: as §2, §3, §4

[8] = 25 μM starter unit, 40 μM malonyl-CoA, pH 7.0, 30° C., 15 min

SMILES: CCCCCCCCCCCCCCCC(=O)SCCNC(=O)CCNC(=O)[C@H](O)C(C)(C)COP(=O)(O)OP(=O)(O)OC[C@H]1O[C@@H](n2cnc3c(N)ncnc32)[C@H](O)[C@@H]1OP(=O)(O)O [C16:0-CoA, palmitoyl-CoA]
Km [1]: 2.3 µM
kcat [1]: 0.0132 s⁻¹
Km [2]: 4.1 µM
kcat [2]: 0.0183 s⁻¹

SMILES: CCCCCC/C=C\CCCCCCCC(=O)SCCNC(=O)CCNC(=O)[C@H](O)C(C)(C)COP(=O)(O)OP(=O)(O)OC[C@H]1O[C@@H](n2cnc3c(N)ncnc32)[C@H](O)[C@@H]1OP(=O)(O)O [C16:1-CoA, palmitoleoyl-CoA]
maximal 5-alkylresorcinol-forming activity [3, 8]: 60.1 pkat mg^1
Km [1]: 2.3 µM
kcat [1]: 0.0183 s⁻¹
Km [2]: 3.6 µM
kcat [2]: 0.0233 s⁻¹

SMILES: CC(C)(COP(=O)(O)OP(=O)(O)OC[C@H]1O[C@@H](n2cnc3c(N)ncnc32)[C@H](O)[C@@H]1OP(=O)(O)O)[C@@H](O)C(=O)NCCC(=O)NCCSC(=O)CC(=O)O [Malonyl-CoA, malonyl-CoA]
Km [1]: 5.2 µM
kcat [1]: 0.0148 s⁻¹
Km [2]: 5.8 µM
kcat [2]: 0.0123 s⁻¹

SMILES: CCCCC/C=C\C/C=C\C/C=C\C/C=C\CCCC(=O)SCCNC(=O)CCNC(=O)[C@H](O)C(C)(C)COP(=O)(O)OP(=O)(O)OC[C@H]1O[C@@H](n2cnc3c(N)ncnc32)[C@H](O)[C@@H]1OP(=O)(O)O [arachidonoyl-CoA]
activity as starter unit (in words) [4]: No activity
activity as starter unit (in words) [5]: No activity
activity as starter unit (in words) [6]: No activity

SMILES: CC(C)(COP(=O)(O)OP(=O)(O)OC[C@H]1O[C@@H](n2cnc3c(N)ncnc32)[C@H](O)[C@@H]1OP(=O)(O)O)[C@@H](O)C(=O)NCCC(=O)NCCSC(=O)c1ccccc1 [benzoyl-CoA]
activity as starter unit (in words) [7]: No activity
activity as starter unit (in words) [3]: No activity

SMILES: CCCCCCCC(=O)SCCNC(=O)CCNC(=O)[C@H](O)C(C)(C)COP(=O)(O)OP(=O)(O)OC[C@H]1O[C@@H](n2cnc3c(N)ncnc32)[C@H](O)[C@@H]1OP(=O)(O)O [capryloyl-CoA]
triketide pyrone derailment product, share of the total moles product derived from the starter [7]: ~33%

SMILES: C=CC/C=C\C/C=C\CCCCCCCCSCCNC(=O)CCNC(=O)[C@H](O)C(C)(C)COP(=O)(O)OP(=O)(O)OC[C@H]1O[C@@H](n2cnc3c(N)ncnc32)[C@H](O)[C@@H]1OP(=O)(O)O [hexadecatrienyl-CoA, (9Z,12Z)-Hexadeca-9,12,15-trienyl-CoA]
activity as starter unit (in words) [7]: utilized
activity as starter unit (in words) [3]: utilized

Continued, values first:

triketide pyrone derailment product, share of the total moles product derived from the starter [7]: approximately 9%
triketide pyrone derailment product, share of the total moles product derived from the starter [3]: approximately 9%
activity as starter unit (in words) [4]: No activity
activity as starter unit (in words) [5]: No activity
activity as starter unit (in words) [6]: No activity
SMILES: CCCCCC(=O)SCCNC(=O)CCNC(=O)[C@H](O)C(C)(C)COP(=O)(O)OP(=O)(O)OC[C@H]1O[C@@H](n2cnc3c(N)ncnc32)[C@H](O)[C@@H]1OP(=O)(O)O [hexanoyl-CoA]

activity as starter unit (in words) [7]: No activity
activity as starter unit (in words) [3]: No activity
SMILES: CC(C)C(=O)SCCNC(=O)CCNC(=O)[C@H](O)C(C)(C)COP(=O)(O)OP(=O)(O)OC[C@H]1O[C@@H](n2cnc3c(N)ncnc32)[C@H](O)[C@@H]1OP(=O)(O)O [isobutyryl-CoA]

activity as starter unit (in words) [7]: No activity
activity as starter unit (in words) [3]: No activity
SMILES: CC(C)CC(=O)SCCNC(=O)CCNC(=O)[C@H](O)C(C)(C)COP(=O)(O)OP(=O)(O)OC[C@H]1O[C@@H](n2cnc3c(N)ncnc32)[C@H](O)[C@@H]1OP(=O)(O)O [isovaleryl-CoA]

triketide pyrone derailment product, share of the total moles product derived from the starter [7]: ~15%
maximal 5-alkylresorcinol-forming activity [7, 8]: 81.0 pkat mg^−1
triketide pyrone derailment product, share of the total moles product derived from the starter [3]: < 5%
SMILES: CCCCCCCCCCCCCC(=O)SCCNC(=O)CCNC(=O)[C@H](O)C(C)(C)COP(=O)(O)OP(=O)(O)OC[C@H]1O[C@@H](n2cnc3c(N)ncnc32)[C@H](O)[C@@H]1OP(=O)(O)O [myristoyl-CoA]
